Source: ChEMBL document CHEMBL5113512, “β-Nitrostyrene derivatives as broad range potential antifungal agents targeting fungal cell wall” (2022)
Values after ≈ are worked out from the molar mass of the structure shown. Active and inactive are the calls of the source. The rule behind the calls is not given here.

Legend:
Candida albicans [1] = experiment: Antifungal activity against Candida albicans ATCC 24433 assessed as inhibition of fungal growth by broth microdilution method; type: functional
Candida parapsilosis = experiment: Antifungal activity against Candida parapsilosis ATCC 90018 assessed as inhibition of fungal growth by broth microdilution method; type: functional; details: Lodderomyces parapsilosis
Nakaseomyces glabratus = experiment: Antifungal activity against Candida glabrata ATCC 2001 assessed as inhibition of fungal growth by broth microdilution method; type: functional
Candida tropicalis = experiment: Antifungal activity against Candida tropicalis ATCC 750 assessed as inhibition of fungal growth by broth microdilution method; type: functional
[Candida] auris [2] = Antifungal activity against Candida auris 102 assessed as inhibition of fungal growth by broth microdilution method; type: functional; details: Candidozyma auris
[Candida] auris [3] = Antifungal activity against Candida auris 105 assessed as inhibition of fungal growth by broth microdilution method; type: functional; details: Candidozyma auris
[Candida] auris [4] = Antifungal activity against Candida auris 118 assessed as inhibition of fungal growth by broth microdilution method; type: functional; details: Candidozyma auris
[Candida] auris [5] = Antifungal activity against wild type Candida auris 102 assessed as inhibition of fungal growth by broth microdilution method; type: functional; details: Candidozyma auris
Candida albicans [6] = experiment: Synergistic antifungal activity against Candida albicans ATCC 24433 assessed as fractional inhibitory concentration index incubated for 48 hrs in presence of caspofungin by checker board assay; type: functional
Candida albicans [7] = experiment: Antifungal activity against wild type Candida albicans SN152 assessed as inhibition of fungal growth by broth microdilution method; type: functional
Candida albicans [8] = experiment: Antifungal activity against Candida albicans SN152 harboring CAS5 mutant assessed as inhibition of fungal growth by broth microdilution method; type: functional
Candida albicans [9] = experiment: Antifungal activity against Candida albicans ATCC 24433 overexpressing transporter protein GU4 assessed as inhibition of fungal growth by broth microdilution method; type: functional
Candida albicans [10] = experiment: Antifungal activity against Candida albicans ATCC 24433 overexpressing transporter protein GU5 assessed as inhibition of fungal growth by broth microdilution method; type: functional
Candida albicans [11] = experiment: Antifungal activity against Candida albicans ATCC 24433 overexpressing transporter protein F2 assessed as inhibition of fungal growth by broth microdilution method; type: functional
Candida albicans [12] = experiment: Antifungal activity against Candida albicans ATCC 24433 overexpressing transporter protein F5 assessed as inhibition of fungal growth by broth microdilution method; type: functional
Candida albicans [13] = experiment: Antifungal activity against Candida albicans ATCC 24433 overexpressing ADCDR1-GFP assessed as inhibition of fungal growth by broth microdilution method; type: functional
Candida albicans [14] = experiment: Antifungal activity against Candida albicans ATCC 24433 overexpressing ADCaMDR1-GFP assessed as inhibition of fungal growth by broth microdilution method; type: functional
Candida albicans [15] = experiment: Antifungal activity against Candida albicans ATCC 24433 overexpressing ADPDR5-GFP assessed as inhibition of fungal growth by broth microdilution method; type: functional
Candida albicans [16] = experiment: Antifungal activity against Candida albicans ATCC 24433 overexpressing AD(1-8)u-assessed as inhibition of fungal growth by broth microdilution method; type: functional
Candida albicans [17] = experiment: Synergistic antifungal activity against Candida albicans ATCC 24433 overexpressing ADCDR1-GFP assessed as fractional inhibitory concentration index incubated for 48 hrs in presence of caspofungin by checker board assay; type: functional
Candida albicans [18] = experiment: Synergistic antifungal activity against Candida albicans ATCC 24433 overexpressing ADCaMDR1-GFP assessed as fractional inhibitory concentration index incubated for 48 hrs in presence of caspofungin by checker board assay; type: functional
Candida albicans [19] = experiment: Synergistic antifungal activity against Candida albicans ATCC 24433 overexpressing ADPDR5-G assessed as fractional inhibitory concentration index incubated for 48 hrs in presence of caspofungin by checker board assay; type: functional
Candida albicans [20] = experiment: Inhibition of drug efflux in Candida albicans ATCC 24433 overexpressing AD(1-8)u- assessed as […] in nile red efflux incubated for 30 mins by flow cytometry; type: functional
Candida albicans [21] = experiment: Fungicidal activity against Candida albicans ATCC 24433 assessed as reduction in fungal growth by measuring reduction in colony count at sub-MIC concentration measured after 48 hrs by time kill assay; type: functional, organism-based
Cell membrane [22] = experiment: Disruption of membrane integrity in Candida albicans ATCC 24433 assessed as cell deformation measured after 30 mins by SEM analysis; type: subcellular
Cell membrane [23] = experiment: Disruption of membrane integrity in Candida albicans ATCC 24433 assessed as cell surface perturbations measured after 3 hrs by SEM analysis
Cell membrane [24] = experiment: Disruption of membrane integrity in Candida auris CBS10913 assessed as cell surface perturbations measured after 3 hrs by SEM analysis; type: subcellular; details: Candidozyma auris
Cell membrane [25] = experiment: Disruption of membrane integrity in Candida albicans ATCC 24433 assessed as cell shrinkage and lysis by measuring leakage of intracellular material measured after 6 hrs by SEM analysis; type: subcellular
Cell membrane [26] = experiment: Disruption of membrane integrity in Candida auris CBS10913 assessed as cell shrinkage and lysis by measuring leakage of intracellular material measured after 6 hrs by SEM analysis; details: Candidozyma auris
Candida albicans [27] = experiment: Induction of ROS generation in Candida albicans ATCC 24433 at sub-inhibitory concentration incubated for 1 hr by DCFDA staining-based flow cytometric analysis; type: functional, organism-based
[Candida] auris [28] = Induction of ROS generation in Candida auris CBS10913 at sub-inhibitory concentration incubated for 1 hr by DCFDA staining-based flow cytometric analysis; type: functional, organism-based; details: Candidozyma auris
Candida albicans [29] = experiment: Induction of ROS generation in Candida albicans ATCC 24433 assessed as increase in relative fluorescence unit at sub-inhibitory concentration incubated for 1 hr by DCFDA staining-based flow cytometric analysis; type: functional, organism-based
[Candida] auris [30] = Induction of ROS generation in Candida auris CBS10913 assessed as increase in relative fluorescence unit at sub-inhibitory concentration incubated for 1 hr by DCFDA staining-based flow cytometric analysis; type: functional, organism-based; details: Candidozyma auris
Candida albicans [31] = experiment: Inhibition of drug efflux in Candida albicans ATCC 24433 overexpressing ADCDR1-GFP assessed as reduction in rhodamine 6g efflux preincubated for 45 mins followed by substrate addition and measured after 30 mins; type: functional; details: dose 0.1-100 µg/ml, time 75.0 min, DDE = dose-dependent effect
Candida albicans [32] = experiment: Inhibition of drug efflux in Candida albicans ATCC 24433 overexpressing ADPDR5-GFP assessed as reduction in rhodamine 6g efflux preincubated for 45 mins followed by substrate addition and measured after 30 mins; type: functional; details: dose 0.1-100 µg/ml, time 75.0 min, DDE = dose-dependent effect
Candida albicans [33] = experiment: Inhibition of drug efflux in Candida albicans ATCC 24433 overexpressing ADCaMDR1-GF assessed as […] in nile red efflux incubated for 30 mins by flow cytometry; type: functional

SMILES	MIC80 (Candida albicans [1]) [µg/mL]	MIC80 (Candida parapsilosis) [µg/mL]	MIC80 (Nakaseomyces glabratus) [µg/mL]	MIC80 (Candida tropicalis) [µg/mL]	MIC80 ([Candida] auris [2]) [µg/mL]	MIC80 ([Candida] auris [3]) [µg/mL]	MIC80 ([Candida] auris [4]) [µg/mL]	MIC80 ([Candida] auris [5]) [µg/mL]	fractional inhibitory concentration index (FICI) (Candida albicans [6])	MIC80 (Candida albicans [7]) [µg/mL]	MIC80 (Candida albicans [8]) [µg/mL]	MIC80 (Candida albicans [9]) [µg/mL]	MIC80 (Candida albicans [10]) [µg/mL]	MIC80 (Candida albicans [11]) [µg/mL]	MIC80 (Candida albicans [12]) [µg/mL]	MIC80 (Candida albicans [13]) [µg/mL]	MIC80 (Candida albicans [14]) [µg/mL]	MIC80 (Candida albicans [15]) [µg/mL]	MIC80 (Candida albicans [16]) [µg/mL]	fractional inhibitory concentration index (FICI) (Candida albicans [17])	also measured
CC/C(=C\c1cccc([N+](=O)[O-])c1)[N+](=O)[O-]	32 (≈ 144 µM)	32 (≈ 144 µM)	16 (≈ 72 µM)	16 (≈ 72 µM)	8 (≈ 36 µM)	8 (≈ 36 µM)	8 (≈ 36 µM)	8 (≈ 36 µM)	<0.5	16 (≈ 72 µM)	8 (≈ 36 µM)	8 (≈ 36 µM)	16 (≈ 72 µM)	4 (≈ 18 µM)	4 (≈ 18 µM)	16 (≈ 72 µM)	8 (≈ 36 µM)	16 (≈ 72 µM)	16 (≈ 72 µM)	<0.5	fractional inhibitory concentration index (FICI) (Candida albicans [18]): <0.5; fractional inhibitory concentration index (FICI) (Candida albicans [19]): <0.5
CC/C(=C\c1ccc(OC)cc1)[N+](=O)[O-]	4 (≈ 19.3 µM)	8 (≈ 38.6 µM)	4 (≈ 19.3 µM)	2 (≈ 9.65 µM)	4 (≈ 19.3 µM)	2 (≈ 9.65 µM)	4 (≈ 19.3 µM)	2 (≈ 9.65 µM)	<2.5	8 (≈ 38.6 µM)	2 (≈ 9.65 µM)	4 (≈ 19.3 µM)	4 (≈ 19.3 µM)	2 (≈ 9.65 µM)	2 (≈ 9.65 µM)	4 (≈ 19.3 µM)	2 (≈ 9.65 µM)	2 (≈ 9.65 µM)	4 (≈ 19.3 µM)	<0.5	inhibition (Candida albicans [20]): Active; Activity (Candida albicans [21]): Active; Activity (Cell membrane [22]): Active; Activity (Cell membrane [23]): Active; Activity (Cell membrane [24]): Active; Activity (Cell membrane [25]): Active; Activity (Cell membrane [26]): Active; Activity (Candida albicans [27]): Active; Activity ([Candida] auris [28]): Active; Activity (Candida albicans [29]): Active; Activity ([Candida] auris [30]): Active; fractional inhibitory concentration index (FICI) (Candida albicans [18]): <0.5; fractional inhibitory concentration index (FICI) (Candida albicans [19]): <0.5; inhibition (Candida albicans [31]): Dde; inhibition (Candida albicans [32]): Dde; inhibition (Candida albicans [33]): Active
COc1ccc(/C=C/[N+](=O)[O-])cc1OC	32 (≈ 153 µM)	32 (≈ 153 µM)	32 (≈ 153 µM)	16 (≈ 76.5 µM)	8 (≈ 38.2 µM)	8 (≈ 38.2 µM)	4 (≈ 19.1 µM)	4 (≈ 19.1 µM)	–	–	–	32 (≈ 153 µM)	16 (≈ 76.5 µM)	16 (≈ 76.5 µM)	16 (≈ 76.5 µM)	32 (≈ 153 µM)	16 (≈ 76.5 µM)	16 (≈ 76.5 µM)	16 (≈ 76.5 µM)	–	–
COc1ccc(/C=C(\C)[N+](=O)[O-])cc1	8 (≈ 41.4 µM)	16 (≈ 82.8 µM)	4 (≈ 20.7 µM)	4 (≈ 20.7 µM)	4 (≈ 20.7 µM)	2 (≈ 10.4 µM)	4 (≈ 20.7 µM)	2 (≈ 10.4 µM)	<1.5	–	–	4 (≈ 20.7 µM)	4 (≈ 20.7 µM)	2 (≈ 10.4 µM)	2 (≈ 10.4 µM)	8 (≈ 41.4 µM)	4 (≈ 20.7 µM)	4 (≈ 20.7 µM)	4 (≈ 20.7 µM)	<0.5	fractional inhibitory concentration index (FICI) (Candida albicans [18]): <0.5; fractional inhibitory concentration index (FICI) (Candida albicans [19]): <0.5
OC(Cn1cncn1)(Cn1cncn1)c1ccc(F)cc1F [FLUCONAZOLE]	–	–	–	–	–	–	–	–	–	1 (≈ 3.27 µM)	1 (≈ 3.27 µM)	–	–	–	–	–	–	–	–	–	–
C[C@@H]1[C@H](O)[C@@H](C)/C=C/C=C/C=C/C=C/C=C/C=C/C=C/[C@H](O[C@@H]2O[C@H](C)[C@@H](O)[C@H](N)[C@@H]2O)C[C@@H]2O[C@](O)(C[C@@H](O)C[C@@H](O)[C@H](O)CC[C@@H](O)C[C@@H](O)CC(=O)O[C@H]1C)C[C@H](O)[C@H]2C(=O)O [AMPHOTERICIN B]	–	–	–	–	–	–	–	–	–	0.5 (≈ 0.541 µM)	0.5 (≈ 0.541 µM)	–	–	–	–	–	–	–	–	–	–
